The record followed here is ChEMBL document CHEMBL1201862, “PubChem BioAssay data set” (2004).

Molecules are shown by their SMILES.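 Test compounds were applied to cells in 96-well plates for 48 hours at 5 doses. At the GI50, growth is halved.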 Activity calls are given as the source filed them. Rule as the data show it: active = GI50 up to about 1.1 µM and inactive = higher.

Test systems include HCT-15; SF-539; CCRF-CEM; NCI-H460; SR; NCI-H522; 786-0; EKVX; SK-MEL-28; UO-31; A549; COLO 205; MDA-MB-231; MDA-N; PC-3; NCI/ADR-RES; MCF7; T47D.
What all share (assay): inhibition of tumour cell growth, NCI panel, 48 h

Regarding `COc1cc(Nc2nc3cc(C(F)(F)F)ccc3nc2-c2ccccc2)cc(OC)c1OC`, the GI50 in the experiment on HCT-15 was greater than 100 µM; with SF-539, 54.8 µM (inactive); with CCRF-CEM, > 100 µM (inactive); in the experiment on NCI-H460, > 100 µM (inactive); in the experiment with SR, > 100 µM (inactive); with NCI-H522, 37.8 µM (inactive). Further, the GI50 is 40.7 µM (inactive) in the experiment on 786-0; 24.3 µM (inactive) in the experiment with EKVX; 49.7 µM (inactive) with SK-MEL-28; > 100 µM (inactive) in the experiment with UO-31; 92.3 µM (inactive) in the experiment on A549; > 100 µM (inactive) with COLO 205.

Consider `O=C(Nc1nc(C23CC4CC(CC(C4)C2)C3)cs1)c1cc2cc(Cl)ccc2oc1=O`, for which the GI50 in the experiment on HCT-15 was greater than 100 µM; in the experiment with MDA-MB-231, > 100 µM (inactive); with SF-539, > 100 µM (inactive); in the experiment with CCRF-CEM, > 100 µM (inactive); with NCI-H460, > 100 µM (inactive); with SR, > 100 µM (inactive). The GI50 in the experiment on NCI-H522, with MDA-N, with PC-3, in the experiment with 786-0, with EKVX and with SK-MEL-28 was > 100 µM (inactive) in each case. In addition, the GI50 in the experiment with NCI/ADR-RES, in the experiment with UO-31, in the experiment on MCF7, in the experiment on A549 and in the experiment with COLO 205 was > 100 µM (inactive) in each case.

`CCCCCC(=O)NC(=S)Nc1nnn[nH]1`: the GI50 is greater than 100 µM in the experiment with HCT-15; > 100 µM (inactive) with MDA-MB-231; > 100 µM (inactive) with SF-539; > 100 µM (inactive) with CCRF-CEM; > 100 µM (inactive) in the experiment on NCI-H460; > 100 µM (inactive) in the experiment with SR. For the same compound, the GI50 with NCI-H522, in the experiment with MDA-N, in the experiment with PC-3, with 786-0, with EKVX and in the experiment with SK-MEL-28 was > 100 µM (inactive) in each case. The GI50 in the experiment with T47D, in the experiment with UO-31, in the experiment on MCF7, in the experiment with A549 and in the experiment with COLO 205 was > 100 µM (inactive) each time.

`C/C(C=O)=C/[C@@]1(C)O[C@@H](C)[C@@](C)(O)[C@@H]1O`: the GI50 with HCT-15 is 22.2 µM; in the experiment with MDA-MB-231, > 100 µM (inactive); in the experiment with SF-539 it was 40.2 µM (inactive); in the experiment with CCRF-CEM, 36.9 µM (inactive); with NCI-H460 it was 22.2 µM (inactive); with SR, 2.58 µM (inactive). For the same compound, the GI50 is 19 µM (inactive) in the experiment on NCI-H522; 44.3 µM (inactive) in the experiment on MDA-N; 47.5 µM (inactive) in the experiment on PC-3; 17 µM (inactive) in the experiment with 786-0; > 100 µM (inactive) in the experiment on EKVX; > 100 µM (inactive) with SK-MEL-28. The GI50 with T47D was > 100 µM (inactive); with NCI/ADR-RES, 21.9 µM (inactive); with UO-31 it was 1.3 µM (inactive); in the experiment on MCF7 it was 25.6 µM (inactive); in the experiment with A549, > 100 µM (inactive); in the experiment on COLO 205, 40.7 µM (inactive).

Consider `COC(=O)c1c2c(cc3c1CC1(Cc4cc5c(cc4C1)CCC5)C3)CCC2`, for which the GI50 was greater than 100 µM in the experiment on HCT-15; > 100 µM (inactive) in the experiment on MDA-MB-231; > 100 µM (inactive) in the experiment on SF-539; > 100 µM (inactive) in the experiment with CCRF-CEM; > 100 µM (inactive) in the experiment on NCI-H460; > 100 µM (inactive) in the experiment on SR. In addition, the GI50 with NCI-H522, in the experiment with MDA-N, in the experiment with PC-3, in the experiment on 786-0, in the experiment with EKVX and with SK-MEL-28 was > 100 µM (inactive) in each case. Moreover, the GI50 with T47D, with NCI/ADR-RES, in the experiment with UO-31, with MCF7 and with A549 was > 100 µM (inactive) throughout.

On to `N#Cc1ccccc1C#C/C=C\C#Cc1ccccn1`, for which the GI50 with HCT-15 is 18.8 µM; in the experiment with SF-539, 20.5 µM (inactive); in the experiment with CCRF-CEM, 36.5 µM (inactive); in the experiment with NCI-H460, 20.4 µM (inactive); in the experiment with SR, 4.12 µM (inactive); in the experiment with PC-3, 13.7 µM (inactive). For the same compound, the GI50 was 20.3 µM (inactive) in the experiment on 786-0; 22.9 µM (inactive) with EKVX; 17.5 µM (inactive) with SK-MEL-28; 20.8 µM (inactive) with T47D; 16.6 µM (inactive) with NCI/ADR-RES; 15.3 µM (inactive) with UO-31. Further, the GI50 in the experiment on MCF7 is 14.4 µM (inactive); with A549, 19.8 µM (inactive); in the experiment with COLO 205, 27.4 µM (inactive).

For `COC1(OC)c2no[n+]([O-])c2C(OC)(OC)c2c1no[n+]2[O-]`, the GI50 is 22 µM with HCT-15; 16.4 µM (inactive) with MDA-MB-231; 18.3 µM (inactive) with SF-539; 4.19 µM (inactive) in the experiment on CCRF-CEM; 26.7 µM (inactive) with NCI-H460; 4.38 µM (inactive) with SR. Moreover, the GI50 in the experiment with NCI-H522 is 21.7 µM (inactive); in the experiment on MDA-N, 19.6 µM (inactive); in the experiment on PC-3 it was 25.3 µM (inactive); in the experiment on 786-0, 18.5 µM (inactive); in the experiment on EKVX it was 14.7 µM (inactive); with SK-MEL-28, 15.7 µM (inactive). For the same compound, the GI50 in the experiment with T47D was 21.8 µM (inactive); in the experiment on NCI/ADR-RES, 26.6 µM (inactive); in the experiment with UO-31, 28.2 µM (inactive); in the experiment with MCF7, 14.1 µM (inactive); in the experiment with A549 it was 23.6 µM (inactive); in the experiment on COLO 205, 12.9 µM (inactive).

As for `CC(C)N1CN(c2ccccc2)C2(CCN(CCCC(=O)c3ccc(F)cc3)CC2)C1=O`, the GI50 in the experiment on HCT-15 is 6.31 µM; with MDA-MB-231, 9.14 µM (inactive); with SF-539 it was 9.55 µM (inactive); in the experiment on CCRF-CEM, 1.83 µM (inactive); in the experiment with NCI-H460, 21.1 µM (inactive); with SR, 18.1 µM (inactive). Moreover, the GI50 in the experiment on NCI-H522 was 21 µM (inactive); in the experiment on MDA-N, 14.9 µM (inactive); with PC-3, 18.9 µM (inactive); with 786-0, 6.9 µM (inactive); with EKVX it was 12.7 µM (inactive); with SK-MEL-28, 18.3 µM (inactive). Besides, the GI50 is 6.07 µM (inactive) with T47D; 5.55 µM (inactive) in the experiment on NCI/ADR-RES; 19.4 µM (inactive) in the experiment on UO-31; 3.88 µM (inactive) in the experiment on MCF7; 4.68 µM (inactive) in the experiment on A549; 0.483 µM (active) in the experiment on COLO 205.

Regarding `COC1C(O)C(C)OC(O[C@H]2CC[C@@]3(C)C(CC[C@@H]4[C@@H]3CC[C@]3(C)[C@@H](C(C)OC5OC(CO)C(O)C(O)C5O)CC[C@]43O)C2)C1O` (stereo partly drawn), the GI50 in the experiment on HCT-15 is greater than 25 µM; with MDA-MB-231 it was > 25 µM (inactive); in the experiment on SF-539 it was > 25 µM (inactive); in the experiment on CCRF-CEM, > 25 µM (inactive); with NCI-H460 it was > 25 µM (inactive); in the experiment with SR it was > 25 µM (inactive). In addition, the GI50 in the experiment with NCI-H522, in the experiment with MDA-N, with PC-3, in the experiment with 786-0, in the experiment with EKVX and in the experiment with SK-MEL-28 was > 25 µM (inactive) in each case. Further, the GI50 with NCI/ADR-RES, in the experiment on UO-31, in the experiment on MCF7 and in the experiment on A549 was > 25 µM (inactive) in each case.
